# Experimental data: US9926304B2, “1-(arylmethyl)quinazoline-2,4(1H,3H)-diones as PARP inhibitors and the use thereof” (Impact Therapeutics, Inc., priority 2011, dated 2018)
# Like-named read-outs stand apart in the source and are kept apart here.
# Columns and labels:
# [1] = test system: SW620 human colorectal cancer cells; experiment: MTT based cell viability assay: potentiation of the growth inhibiting activity of MMS
# [2] = test system: BRCA-2 deficient CAPAN-1 human pancreatic cancer cells; experiment: MTT based cell viability assay: growth inhibition of BRCA-2 deficient CAPAN-1 cells; conditions: 240 h, compound alone, 10 day assay
# From the text: Determination of the cell growth inhibiting activity of 1-(3-(4-(pyrimidin-2-yl)piperazine-1-carbonyl)benzyl)quinazoline-2,4(1H,3H)-dione and analogs on BRCA-2 deficient CAPAN-1 pancreatic duck cancer cells using a MTT based cell viability assay
# BRCA-deficient cancer cells are sensitive to PARP inhibition. In the presence of PARP inhibitors, BRCA-deficient cancer cells could not grow and eventually will lead to death of cells. BRCA-2 deficient CAPAN-1 human pancreatic cancer cells were used to test the growth inhibiting activity of substituted 1-(arylmethyl)quinazoline-2,4(1H,3H)-diones. Briefly, CAPAN-1 cells are grown and maintained in IMEM medium supplemented with 20% FBS. The assay takes 10 days to finish. On day 1, 6000 CAPAN-1 cells are seeded to each well of a 96-well plate. The cells are incubated at 37° C. in a cell culture incubator overnight. In the next day, serial dilutions of compounds to be tested and reference compound (AZD2281) were prepared with a 1:3 and 1:10 fashion in DMSO. Ten-fold compound solutions were made by mixing 10 μl DMSO serial dilution solutions with 90 μl fresh growth medium. The cell culture medium was removed and 180 μl fresh media with FBS and 20 μl of compound solutions were added to each well. The final concentration of DMSO was 1%. Cells were then returned to the CO2 cell culture incubator and incubated at 37° C. for two days (day 3 and day 4). On day 5, the same procedure as what was done on day 2 was repeated. Cell culture medium was removed and fresh medium containing serial dilutions of compounds or reference compounds were added. Cells were returned to the CO2 cell culture incubator and incubated for two more days. On day 8, same procedure was repeated again and fresh medium containing the testing compounds or reference compounds were added and incubated for an additional 2 days. On day 10, 20 μl of MTT reagent (5 mg/ml) was added to each well of the cell culture plate and incubated for 4 h. The cell culture media was removed and 100 μl DMSO was added to each well. The 96-well cell culture plates were shaked horizontally for 10 min and readed in a Varioskan Flash plate reader (Thermo Fisher Scientific) at 520 and 690 nm. The obtained 520 nm absorbance readings subtracting corresponding 690 nm reading were analyzed using a commercial graphic software (GraphPad Prism 5) and plotted against the Log scale of the compound concentrations.
# [3] = test system: Human breast cancer cell line T47D; experiment: Cell based caspase-3 activity assay: potentiation of MMS induced apoptosis; conditions: T47D cells, 11.1 μg/ml MMS, 24 hours, intracellular caspase-3 activity, read-out: EC50 (nM), potentiation of the apoptosis inducing activity of MMS
# How it was run: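 T47D cells were exposed for 24 h to compound plus a minimally apoptotic MMS dose (medium containing 11.1 μg/ml MMS). Lysates were incubated 3 h at 37 °C with (Ac-DEVD)2-R110 caspase-3 substrate (20 μM in added buffer) and read at ex 496/em 520 nm. EC50 came from a sigmoidal fit of RFU versus log concentration.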
# [4] = Homo sapiens, SW-620, 120 h, read-out: IC50 (nM), potentiation of the growth inhibiting activity of MMS, SW620 cells, 1.7 μg/ml MMS, 5 days (120 hours), MTT
# [5] = read-out: IC50 (nM), potentiation of the growth inhibiting activity of MMS, SW620 cells, 1.7 μg/ml MMS, 5 days (120 hours), MTT
"IC50 [1, 4]",IC50 [2],"EC50 ([3]; Homo sapiens, T47D, 24 h)","IC50 [1, 5]",EC50 [3],Compound
6.7 nM,358 nM,2.1 nM,–,–,"O=C(c1ccco1)N1CCN(C(=O)c2cc(Cn3c(=O)[nH]c(=O)c4cc(F)ccc43)ccc2F)CC1 [Example 185, 6-Fluoro-1-(4-fluoro-3-(4-(furan-2-carbonyl)piperazine-1-carbonyl)benzyl)quinazoline-2,4(1H,3H)-dione]"
22 nM,223 nM,3.8 nM,–,–,"O=C(c1cccc(Cn2c(=O)[nH]c(=O)c3cc(F)ccc32)c1)N1CCN(C(=O)C2CCCCC2)CC1 [Example 142, 1-(3-(4-(Cyclohexylcarbonyl)piperazine-1-carbonyl)benzyl)-6-fluoroquinazoline-2,4(1H,3H)-dione]"
37 nM,155 nM,8.9 nM,–,–,"O=C(c1cccc(Cn2c(=O)[nH]c(=O)c3cc(F)ccc32)c1)N1CCN(c2ccccn2)CC1 [Example 140, 6-Fluoro-1-(3-(4-(pyridin-2-yl)piperazine-1-carbonyl)benzyl)quinazoline-2,4(1H,3H)-dione]"
45 nM,665 nM,29 nM,–,–,"O=C(c1cc(Cn2c(=O)[nH]c(=O)c3c(Cl)cccc32)ccc1F)N1CCN(c2ncccn2)CC1 [Example 103, 5-Chloro-1-(4-fluoro-3-(4-(pyrimidin-2-yl)piperazine-1-carbonyl)benzyl)quinazoline-2,4(1H,3H)-dione]"
7.8 nM,472 nM,–,–,–,"O=C(c1cc(Cn2c(=O)[nH]c(=O)c3cc(F)ccc32)ccc1F)N1CCN(c2nccs2)CC1 [Example 188, 6-Fluoro-1-(4-fluoro-3-(4-(thiazol-2-yl)piperazine-1-carbonyl)benzyl)quinazoline-2,4(1H,3H)-dione]"
21 nM,1380 nM,–,–,–,"O=C(c1cc(Cn2c(=O)[nH]c(=O)c3ccccc32)ccc1F)N1CCN(c2nccs2)CC1 [Example 190, 1-(4-Fluoro-3-(4-(thiazol-2-yl)piperazine-1-carbonyl)benzyl)quinazoline-2,4(1H,3H)-dione]"
94 nM,–,37 nM,–,–,"O=C(c1ccc(F)c(Cn2c(=O)[nH]c(=O)c3cc(Cl)ccc32)c1)N1CCN(c2ccccn2)CC1 [Example 174, 6-Chloro-1-(6-fluoro-3-(4-(pyridin-2-yl)piperazine-1-carbonyl)benzyl)quinazoline-2,4(1H,3H)-dione]"
481 nM,–,445 nM,–,–,"Nc1ccc2c(c1)c(=O)[nH]c(=O)n2Cc1cccc(C(=O)N2CCN(c3ncccn3)CC2)c1 [Example 219, 6-Amino-1-(3-(4-(pyrimidin-2-yl)piperazine-1-carbonyl)benzyl)quinazoline-2,4(1H,3H)-dione]"
–,–,–,9.2 nM,2 nM,"1-(3-(4-(Cyclopentylcarbonyl)piperazine-1-carbonyl)-6-fluorobenzyl)-6-fluoroquinazoline-2,4(1H,3H)-dione [Example 153]"
> 10000 nM,–,> 10000 nM,–,–,"O=C(NCc1ccccc1)c1cc(Cn2c(=O)[nH]c(=O)c3c(F)cccc32)ccc1F [Example 202, 1-(3-(Benzylcarbamoyl)-4-fluorobenzyl)-5-fluoroquinazoline-2,4(1H,3H)-dione]"
37 nM,–,24 nM,–,–,"COc1ccc(C(=O)N2CCN(c3ncccn3)CC2)cc1Cn1c(=O)[nH]c(=O)c2c(F)cccc21 [Example 208, 5-Fluoro-1-(6-methoxy-3-(4-(pyrimidin-2-yl)piperazine-1-carbonyl)benzyl)quinazoline-2,4(1H,3H)-dione]"
7.8 nM,–,8.6 nM,–,–,"O=C(c1ccc(F)c(Cn2c(=O)[nH]c(=O)c3c(F)cccc32)c1)N1CCN(C(=O)C2CCCC2)CC1 [Example 158, 1-(3-(4-(Cyclopentylcarbonyl)piperazine-1-carbonyl)-6-fluorobenzyl)-5-fluoroquinazoline-2,4(1H,3H)-dione]"

# Further lines, the compound ahead of its results:
Compound,"IC50 [1, 4]",IC50 [2],"EC50 ([3]; Homo sapiens, T47D, 24 h)","IC50 [1, 5]",EC50 [3]
"O=C(c1cc(Cn2c(=O)[nH]c(=O)c3ccccc32)ccc1F)N1CCN(C(=O)C2CCCC2)CC1 [Example 23, 1-(3-(4-(Cyclopentylcarbonyl)piperazine-1-carbonyl)-4-fluorobenzyl)quinazoline-2,4(1H,3H)-dione]",8.2 nM,160 nM,4 nM,–,–
"O=C(c1ccccc1)N1CCN(C(=O)c2cc(Cn3c(=O)[nH]c(=O)c4ccccc43)ccc2F)CC1 [Example 45, 1-(3-(4-Benzoylpiperazine-1-carbonyl)-4-fluorobenzyl)quinazoline-2,4(1H,3H)-dione]",34 nM,668 nM,11 nM,–,–
"O=C(c1cccc(Cn2c(=O)[nH]c(=O)c3cc([N+](=O)[O-])ccc32)c1)N1CCN(c2ncccn2)CC1 [Example 91, 6-Nitro-1-(3-(4-(pyrimidin-2-yl)piperazine-1-carbonyl)benzyl)quinazoline-2,4 (1H,3H)-dione]",> 10000 nM,–,1990 nM,–,–
"O=C(c1cccc(Cn2c(=O)[nH]c(=O)c3ccccc32)c1)N1CCN(c2ccccc2)CC1 [Example 19, 1-(3-(4-Phenylpiperazine-1-carbonyl)benzyl)quinazoline-2,4(1H,3H)-dione]",> 10000 nM,–,> 10000 nM,–,–
"COC(=O)c1cccc(Cn2c(=O)[nH]c(=O)c3ccccc32)c1 [Example 1, 1-(3-Methoxycarbonylbenzyl)quinazoline-2,4(1H,3H)-dione]",> 10000 nM,–,> 10000 nM,–,–
"Cc1ccc2c(=O)[nH]c(=O)n(Cc3cccc(C(=O)N4CCN(C(=O)C5CCCC5)CC4)c3)c2c1 [Example 79, 1-(3-(4-(Cyclopentylcarbonyl)piperazine-1-carbonyl)benzyl)-7-methylquinazoline-2,4(1H,31H)-dione]",–,–,–,5540 nM,3220 nM
"O=C(c1ccc(Cl)c(Cn2c(=O)[nH]c(=O)c3ccccc32)c1)N1CCN(C(=O)C2CCCC2)CC1 [Example 55, 1-(6-Chloro-3-(4-(cyclopentylcarbonyl)piperazine-1-carbonyl)benzyl)quinazoline-2,4(1H,3H)-dione]",89 nM,–,20 nM,–,–
"O=C(c1cccc(Cn2c(=O)[nH]c(=O)c3cc(Br)ccc32)c1)N1CCN(C(=O)C2CCCC2)CC1 [Example 87, 6-Bromo-1-(3-(4-(cyclopentylcarbonyl)piperazine-1-carbonyl)benzyl)quinazoline-2,4(1H,3H)-dione]",35 nM,–,27 nM,–,–
"O=C(c1cccc(Cn2c(=O)[nH]c(=O)c3ccccc32)c1)N1CCN(CC2CCCCC2)CC1 [Example 73, 1-(3-(4-(Cyclohexylmethyl)piperazine-1-carbonyl)benzyl)quinazoline-2,4(1H,3H)-dione]",3380 nM,–,811 nM,–,–
"O=C(c1cccc(Cn2c(=O)[nH]c(=O)c3ccccc32)c1)N1CCN(C(=O)c2cccs2)CC1 [Example 32, 1-(3-(4-(Thiophene-2-carbonyl)piperazine-1-carbonyl)benzyl)quinazoline-2,4(1H,3H)-dione]",106 nM,–,96 nM,–,–
"O=C(c1ccc(Cl)cc1)N1CCN(C(=O)c2cccc(Cn3c(=O)[nH]c(=O)c4ccccc43)c2)CC1 [Example 10, 1-(3-(4-(4-Chlorobenzoyl)piperazine-1-carbonyl)benzyl)quinazoline-2,4(1H,3H)-dione]",439 nM,–,400 nM,–,–
"O=C(c1ccc(F)cc1)N1CCN(C(=O)c2ccc(Cn3c(=O)[nH]c(=O)c4ccccc43)cc2)CC1 [Example 96, 1-(4-(4-(4-Fluorobenzoyl)piperazine-1-carbonyl)benzyl)quinazoline-2,4(1H,3H)-dione]",> 10000 nM,–,> 10000 nM,–,–
